Measurements as given in patent US7985832B2, “Antimicrobial cathelicidin peptides” (Kansas State University Research Foundation, priority 2005, dated 2011).
Ends that are not written are not given here.

Key:
skin S. aureus = conditions: literature (Murakami et al.); cited from earlier work
dog erythrocytes = assay type: cell-based
Description: (§1) Hemolytic activity of K9CATH was determined (Skerlavag, FEBS Lett., 463:58 (1999); Yu et al., J. Pept. Res., 60:1 (2002)). Briefly, 4 mL of canine blood was collected in EDTA-containing blood collection tubes (Becton Dickinson, Franklin Lakes, N.J.). Whole blood was then centrifuged at 10,000×g for 1 minute at room temperature. Plasma was discarded (supernatant) and erythrocytes were washed twice with PBS, re-suspended to a 0.5% (vol/vol) solution in PBS, and 90 μL dispensed into 96-well microtiter plates. Different concentrations of K9CATH dissolved in 0.01% acetic acid were added in duplicate to dog cells and incubated at 37° C. for 2 hours. Following centrifugation at 8000×g for 10 minutes, supernatants were transferred to new 96-well microtiter plates and monitored by measuring the absorbance at […] for released hemoglobin. Controls for 0 and 100% hemolysis consisted of cells suspended in PBS only and in 1.0% Triton X-100, respectively. Percentage of hemolysis (%) was calculated as [(OD415 nm, peptide solution−OD415 nm, PBS only)/(OD415 nm, 1% Triton X-100−OD 415 nm, PBS only)]×100. The N-terminal 18 amino acid segment of bovine myeloid antimicrobial peptide 28 (BMAP-28(1-18)) (Skerlavaj et al., J. Biol. Chem., 271:28375 (1996); Yu et al., J. Pept. Res., 60:1 (2002); Risso et al., Cell. Immunol., 189:107 (1998)) was used as a positive control. […]

chicken erythrocytes = assay type: cell-based
Description: FIG. 9. Hemolytic Activity of Canine Cathelicidin. The assays were performed with chicken red blood cells as previously described (49). The data shown represent the mean of duplicate values from two independent experiments.
as §1, with “only)]×100.” for “only)]×100. The N-terminal 18 amino acid segment of bovine myeloid antimicrobial peptide 28 (BMAP-28(1-18)) (Skerlavaj et al., J. Biol. Chem., 271:28375 (1996); Yu et al., J. Pept. Res., 60:1 (2002); Risso et al., Cell. Immunol., 189:107 (1998)) was used as a positive control.”

Listeria monocytogenes = assay type: cell-based
From the text: (§2) Microorganisms against which a polypeptide of the invention is active include prokaryotic and eukaryotic cells such as Gram-negative and Gram-positive bacteria, yeast and protozoa. Non-limiting examples include Listeria monocytogenes, Staphylococcus aureus, Escherichia coli, Klebsiella pneumoniae, Salmonella typhimurium, Pseudomonas aeruginosa, Proteus mirabilis, Salmonella enteritidis, Neisseria gonorrhoeae, Ureaplasma canigenitalium, Ureaplasma urealyticum, Candida albicans, Trichomonas vaginalis, Treponema pallidum or Chlamydia trachomatis, or a spoilage organism. […] MIC antimicrobial activity refers to complete inhibition of the growth of a microorganism, as judged by the naked eye, after a selected period of incubation. The method used to determine MIC is that set forth in Sang et al., Infection and Immunity, 2611-20 (May, 2005).
(§3) Microorganisms evaluated were: Candida albicans ATCC 11006 and 14053, Escherichia coli ATCC 25922, 700336, 700378, and BAA-457, Klebsiella pneumoniae ATCC 10031, Listeria monocytogenes ATCC 19155, Proteus mirabilis ATCC 12453, Pseudomonas aeruginosa ATCC 10145, Salmonella Enteritidis ATCC 13076, Salmonella Typhimurium ATCC 13311, Staphylococcus aureus ATCC 10832, Ureaplasma canigenitalium ATCC 51252, and Ureaplasma urealyticum ATCC 27619. C. albicans was grown overnight (35° C.) on potato dextrose agar and managed according to NCCSL standards (Pfaller et al., Manual NCCLS #M27-A2, 6th ed., Wayne, Pa. (2002)). U. canigenitalium and U urealyticum were stored at −20° C. in urea broth 10B (per ATCC specifications) and thawed at 5° C. the night prior to assay. All other bacteria were maintained on trypticase soy agar (Difco, Detroit, Mich.) plates at 37° C. Mid-logarithmic phase bacteria were grown by transferring single cell colonies into trypticase soy broth (Difco), followed by incubation and homogenization for 3 hours at 37° C. Bacterial pellets were obtained after centrifugation for 10 minutes at 4° C. at 900×g, and washed once, followed by suspension in 10 mM sodium phosphate buffer (PB, pH 7.4, [Na+]=17.83 mM). Initial bacterial concentrations were determined (Ferraro et al., Manual NCCLS #M7-A6, 6th ed., Wayne, Pa. (2003)). Initial bacterial populations of 10^8 CFU/mL were obtained at an optical density (OD) of 0.1 at 600 nm. C. albicans were suspended in 10 mM PB to a McFarland standard of 0.5 for an initial 10^8 CFU/ml following NCCLS standards (Pfaller et al., Manual NCCLS #M27-A2, 6th ed., Wayne, Pa. (2002)), except that the recommended 0.85% saline solution was replaced with 10 mM PB. All microbial serial dilutions were performed in 10 mM PB to obtain 10^3 CFU/mL working dilutions.
(§4) A modified broth microdilution method (Pfaller et al., Manual NCCLS #M27-A2, 6th ed., Wayne, Pa. (2002); Ferraro et al., Manual NCCLS #M7-A6, 6th ed., Wayne, Pa. (2003)) was used to determine the antimicrobial activity of K9CATH (Sang et al., Infect. Immun., 73:2611 (2005)). Briefly, 50 μL of the K9CATH working stocks were added to the wells of a microtiter plate in which 25 μL of 30 mM sodium PB (pH 7.4, [Na+]=53.49 mM), 25 μL H2O, and 50 μL of the microbial suspension had been previously combined. Microtiter plates were incubated at 37° C. for 2 hours in a shaking incubator (100 RPM), followed by the addition of 150 μL of the corresponding nutritive broth. Antimicrobial activity was determined by establishing the minimal inhibitory concentrations (MIC), defined as the lowest concentration in which microbial growth was prevented, as indicated by the lack of turbidity or color change in the medium (urea broth 10B) after 24 hours of incubation at 37° C. Treated gonorrheal suspension (50 μL) was spot-plated on chocolate agar, and the MIC was defined as the lowest concentration in which no colonies developed after 24 hours of incubation at 37° C. in 5% CO2. […]

Proteus mirabilis = assay type: cell-based
From the text: as §2, §3, §4

Salmonella Enteritidis = assay type: cell-based
From the text: as §2, §3, §4

Escherichia coli = assay type: cell-based
From the text: as §2, §3, §4

Pseudomonas aeruginosa = assay type: cell-based
From the text: as §2, §3, §4

Klebsiella pneumoniae = assay type: cell-based
From the text: as §2, §3, §4

Salmonella Typhimurium = assay type: cell-based
From the text: as §2, §3, §4

Ureaplasma urealyticum = assay type: cell-based
From the text: as §2, §3, §4

| Substance | concentration inhibiting skin S. aureus (skin S. aureus) [µM] | lower in vitro hemolytic activity compared to BMAP-18 (dog erythrocytes) | lower in vitro hemolytic activity compared to BMAP-18 (chicken erythrocytes) | MIC (Listeria monocytogenes) [µM] | MIC (Proteus mirabilis) [µM] | MIC (Salmonella Enteritidis) [µM] | MIC (Escherichia coli) [µM] | MIC (Pseudomonas aeruginosa) [µM] | MIC (Klebsiella pneumoniae) [µM] | MIC (Salmonella Typhimurium) [µM] | MIC (Ureaplasma urealyticum) [µM] |
| --- | --- | --- | --- | --- | --- | --- | --- | --- | --- | --- | --- |
| LL-37: human cathelicidin antimicrobial peptide (LLGDFFRKSKEKIGKEFKRIVQRIKDFLRNLVPRTES; Antibacterial peptide LL-37; UniProt P49913 134-170, looked up) | > 64 | – | – | – | – | – | – | – | – | – | – |
| RLKELITTGGQKIGEKIRRIGQRIKDFFKNLQPREEKS [K9CATH] | – | 10-20 fold | 10-20 fold | 0.44 | 1.11 | 0.44 | 1.11 | 1.11 | 1.11 | 1.11 | 44.33 |
